From patent US6143759A, “Tetrazoles” (BYK Gulden Lomberg Chemische Fabrik GmbH, priority 1997, dated 2000)
Structures can show the parent of a compound that is named as a salt.

Tests used:
PDE3 = molecular target: T1, PDE3 (Homo sapiens, UniProt Q14432); assay: Inhibition of PDE isoenzymes: PDE3 (cGMP-inhibited), homogenates of human blood platelets; type: biochemical; details: cAMP or cGMP as substrate, 0.5 μM, pH 7.4, 37° C., 15 min; for IC50: read-out: PDE3 -log IC50 (converted)
T1 construct: were investigated in homogenates of human blood platelets; from tissue; host or cells: homogenates of human blood platelets

PDE4 = assay: Inhibition of PDE isoenzymes: PDE4 (cAMP-specific), cytosol of human polymorphonuclear leukocytes, cAMP as substrate; type: biochemical; details: cytosol of human PMNL; 0.5 μM cAMP; motapizone (1 μM) present; pH 7.4, 37° C., 15 min

T1 sequence (Q14432 whole entry): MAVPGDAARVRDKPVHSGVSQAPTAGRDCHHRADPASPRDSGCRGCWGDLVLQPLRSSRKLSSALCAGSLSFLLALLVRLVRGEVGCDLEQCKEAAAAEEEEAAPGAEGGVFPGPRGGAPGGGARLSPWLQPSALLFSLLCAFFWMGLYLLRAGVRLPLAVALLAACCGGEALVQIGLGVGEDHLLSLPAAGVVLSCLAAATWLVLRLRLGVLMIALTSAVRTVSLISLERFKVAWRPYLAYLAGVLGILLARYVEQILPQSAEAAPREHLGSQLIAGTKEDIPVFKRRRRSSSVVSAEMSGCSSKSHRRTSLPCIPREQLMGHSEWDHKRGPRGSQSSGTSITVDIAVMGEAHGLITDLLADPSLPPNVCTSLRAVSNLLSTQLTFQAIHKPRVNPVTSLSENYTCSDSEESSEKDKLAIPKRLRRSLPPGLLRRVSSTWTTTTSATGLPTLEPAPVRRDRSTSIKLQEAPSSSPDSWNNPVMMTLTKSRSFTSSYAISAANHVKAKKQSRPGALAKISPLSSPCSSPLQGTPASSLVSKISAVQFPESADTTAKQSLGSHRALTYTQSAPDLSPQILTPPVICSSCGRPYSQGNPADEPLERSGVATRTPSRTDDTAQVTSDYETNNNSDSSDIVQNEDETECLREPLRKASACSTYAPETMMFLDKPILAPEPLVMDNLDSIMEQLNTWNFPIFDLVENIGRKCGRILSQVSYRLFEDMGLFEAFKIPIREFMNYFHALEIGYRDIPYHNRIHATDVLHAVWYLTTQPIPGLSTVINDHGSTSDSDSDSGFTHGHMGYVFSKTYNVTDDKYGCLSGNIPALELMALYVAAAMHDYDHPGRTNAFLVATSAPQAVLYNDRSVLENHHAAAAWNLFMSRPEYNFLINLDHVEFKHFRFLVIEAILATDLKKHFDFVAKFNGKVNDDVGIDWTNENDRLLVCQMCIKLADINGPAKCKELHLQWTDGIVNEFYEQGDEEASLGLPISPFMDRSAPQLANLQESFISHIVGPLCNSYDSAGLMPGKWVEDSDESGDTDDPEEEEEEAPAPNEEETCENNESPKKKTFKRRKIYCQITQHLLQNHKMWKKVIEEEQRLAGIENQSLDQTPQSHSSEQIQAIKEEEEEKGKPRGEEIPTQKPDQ

| Structure (SMILES) | IC50 (PDE3) [nM] | PDE4 -log IC50 (PDE4) [mol/l] | PDE3 -log IC50 (PDE3) [mol/l] |
| --- | --- | --- | --- |
| COc1cc2c(cc1OC)[C@@H]1CN(C)CC[C@@H]1N=C2c1ccc(-c2nn[nH]n2)cc1 (single isomer, unassigned) [Compound 1, (-)-cis-8,9-Dimethoxy-2-methyl-6-[4-(1H- and 2H-tetrazol-5-yl)phenyl]-1,2,3,4,4a,10b-hexahydrobenzo[c][1,6]naphthyridine] | 166 | 6.42 |  |
| CCn1nnc(-c2ccc(C3=N[C@H]4CCN(C)C[C@H]4c4cc(OC)c(OC)cc43)cc2)n1 (single isomer, unassigned) [Compound 2, (-)-cis-8,9-Dimethoxy-2-methyl-6-[4-(2H-2-ethyltetrazol-5-yl)phenyl]-1,2,3,4,4a,10b-hexahydrobenzo[c][1,6]naphthyridine hydrochloride] | 457 | 6.13 |  |
| COc1cc2c(cc1OC)[C@@H]1CN(C)CC[C@@H]1N=C2c1ccc(-c2nnn(C)n2)cc1 (single isomer, unassigned) [Compound 4, (-)-cis-8,9-Dimethoxy-2-methyl-6-[4-(2H-2-methyltetrazol-5-yl)phenyl]-1,2,3,4,4a,10b-hexahydrobenzo[c][1,6]naphthyridine] | 355 | 5.92 |  |
| CCOc1cc2c(cc1OCC)[C@@H]1CN(C)CC[C@@H]1N=C2c1ccc(-c2nnn(Cc3ccc(OC)cc3)n2)cc1 (single isomer, unassigned) [Compound 5, (-)-cis-8,9-Diethoxy-2-methyl-6-[[4-[2H-2-(4-methoxybenzyl)tetrazol-5-yl]-phenyl]]-1,2,3,4,4a,10b-hexahydrobenzo[c][1,6]naphthyridine hydrochloride] | 204 | 8.03 |  |
| COc1ccc(Cn2nnc(-c3ccc(C4=N[C@H]5CCN(C)C[C@H]5c5cc(OC)c(OC)cc54)cc3)n2)cc1 (single isomer, unassigned) [Compound 7, (-)-cis-8,9-Dimethoxy-2-methyl-6-[[4-[2H-2-(4-methoxybenzyl)tetrazol-5-yl]phenyl]]-1,2,3,4,4a,10b-hexahydrobenzo[c][1,6]naphthyridine hydrochloride] | 148 | 6.74 |  |
| CCOc1cc2c(cc1OCC)[C@@H]1CN(C)CC[C@@H]1N=C2c1cccc(-c2nnn(CC)n2)c1 (single isomer, unassigned) [Compound 11, (-)-cis-8,9-Diethoxy-2-methyl-6-[3-(2H-2-ethyltetrazol-5-yl)-phenyl]-1,2,3,4,4a,10b-hexahydrobenzo[c][1,6]naphthyridine hydrochloride] |  | 7.40 | 5.66 |
| CCOc1cc2c(cc1OC)C(c1cccc(-c3nnn(CC)n3)c1)=N[C@H]1CCN(C)C[C@@H]21 (single isomer, unassigned) [Compound 12, (-)-cis-9-Ethoxy-8-methoxy-2-methyl-6-[3-(2H-2-ethyltetrazol-5-yl)-phenyl]-1,2,3,4,4a,10b-hexahydrobenzo[c][1.6]naphthyridine hydrochloride] | 708 | 7.82 |  |
| CCCCCCn1nnc(-c2ccc(C3=N[C@H]4CCN(C)C[C@H]4c4cc(OCC)c(OC)cc43)cc2)n1 (single isomer, unassigned) [Compound 15, (-)-cis-9-Ethoxy-8-methoxy-2-methyl-6-[4-(2H-2-hexyltetrazol-5-yl)-phenyl]-1,2,3,4,4a,10-hexahydrobenzo[c][1.6]naphthyridine hydrochloride] | 631 | 8.24 |  |
| CCOc1cc2c(cc1OCC)[C@@H]1CN(C)CC[C@@H]1N=C2c1ccc(-c2nn[nH]n2)cc1 (single isomer, unassigned) [Compound 17, (-)-cis-8.9-Diethoxy-2-methyl-6-[4-(1H- and 2H-2-tetrazol-5-yl)-phenyl]-1,2,3,4,4a,10b-hexahydrobenzo[c][1.6]naphthyridine] | 195 | 7.44 |  |
| CCOc1cc2c(cc1OC)C(c1ccc(-c3nn[nH]n3)cc1)=N[C@H]1CCN(C)C[C@@H]21 (single isomer, unassigned) [Compound 18, (-)-cis-9-Ethoxy-8-methoxy-2-methyl-6-[4-(1H- and 2H-2-tetrazol-5-yl)-phenyl]-1,2,3,4,4a,10b-hexahydrobenzo[c][1.6]naphthyridine] | 145 | 7.81 |  |

Continued, values first:

| IC50 (PDE3) [nM] | PDE4 -log IC50 (PDE4) [mol/l] | PDE3 -log IC50 (PDE3) [mol/l] | Structure (SMILES) |
| --- | --- | --- | --- |
| 209 | 7.64 |  | CCOc1cc2c(cc1OCC)[C@@H]1CN(C)CC[C@@H]1N=C2c1ccc(-c2nnn(CC)n2)cc1 (single isomer, unassigned) [Compound 3, (-)-cis-8,9-Diethoxy-2-methyl-6-[4-(2H-2-ethyltetrazol-5-yl)phenyl]-1,2,3,4,4a,10b-hexahydrobenzo[c][1,6]naphthyridine hydrochloride] |
|  | 7.26 | 6.52 | CCOc1cc2c(cc1OCC)[C@@H]1CN(C)CC[C@@H]1N=C2c1ccc(-c2nnn(C)n2)cc1 (single isomer, unassigned) [Compound 6, (-)-cis-8,9-Diethoxy-2-methyl-6-[4-(2H-2-methyltetrazol-5-yl)phenyl]-1,2,3,4,4a,10b-hexahydrobenzo[c][1,6]naphthyridine hydrochloride] |
| 309 | 7.64 |  | CCOc1cc2c(cc1OCC)[C@@H]1CN(C)CC[C@@H]1N=C2c1ccc(-c2nnn(CC3CCCCC3)n2)cc1 (single isomer, unassigned) [Compound 8, (-)-cis-8,9-Diethoxy-2-methyl-6-[4-(2H-2-cyclohexylmethyltetrazol-5-yl)phenyl]-1,2,3,4,4a,10b-hexahydrobenzo[c][1,6]naphthyridine hydrochloride] |
| 148 | 7.96 |  | CCOc1cc2c(cc1OC)C(c1ccc(-c3nnn(CC)n3)cc1)=N[C@H]1CCN(C)C[C@@H]21 (single isomer, unassigned) [Compound 9, (-)-(cis)-9-Ethoxy-8-methoxy-2-methyl-6-[4-(2H-2-ethyltetrazol-5-yl)phenyl]-1,2,3,4,4a,10b-hexahydrobenzo[c][1.6]naphthyridine] |
| 275 | 6.08 |  | CCOc1cc2c(cc1OC)[C@@H]1CN(C)CC[C@@H]1N=C2c1ccc(-c2nnn(CC)n2)cc1 (single isomer, unassigned) [Compound 10, (-)-cis-8-Ethoxy-9-methoxy-2-methyl-6-[4-(2H-2-ethyltetrazol-5-yl)-phenyl]-1,2,3,4,4a,10b-hexahydrobenzo[c][1.6]naphthyridine hydrochloride] |
| 219 | 7.94 |  | CCCn1nnc(-c2ccc(C3=N[C@H]4CCN(C)C[C@H]4c4cc(OCC)c(OC)cc43)cc2)n1 (single isomer, unassigned) [Compound 16, (-)-cis-9-Ethoxy-8-methoxy-2-6-[4-(2H-2-propyltetrazol-5-yl)-phenyl]-1,2,3,4,4a,10b-hexahydrobenzo[c][1.6]naphthyridine hydrochloride] |
